Reference: paper PMC4076210, “Discovery of Novel AKT Inhibitors with Enhanced Anti-Tumor Effects in Combination with the MEK Inhibitor” (PLoS ONE, 2014)
Where two headings read alike, the source gives them in different places.

How the values were obtained:
FAK(h) = biological target: T1, FAK(h) (Homo sapiens, UniProt Q05397); assay: Kinase panel; type: biochemical
T1 construct: purchased Millipore KinaseProfiler

KDR(h) = biological target: T2, KDR(h) (Homo sapiens, UniProt P35968); assay: Kinase panel; type: biochemical
T2 construct: purchased Millipore KinaseProfiler
T2 sequence (P35968 20-1356): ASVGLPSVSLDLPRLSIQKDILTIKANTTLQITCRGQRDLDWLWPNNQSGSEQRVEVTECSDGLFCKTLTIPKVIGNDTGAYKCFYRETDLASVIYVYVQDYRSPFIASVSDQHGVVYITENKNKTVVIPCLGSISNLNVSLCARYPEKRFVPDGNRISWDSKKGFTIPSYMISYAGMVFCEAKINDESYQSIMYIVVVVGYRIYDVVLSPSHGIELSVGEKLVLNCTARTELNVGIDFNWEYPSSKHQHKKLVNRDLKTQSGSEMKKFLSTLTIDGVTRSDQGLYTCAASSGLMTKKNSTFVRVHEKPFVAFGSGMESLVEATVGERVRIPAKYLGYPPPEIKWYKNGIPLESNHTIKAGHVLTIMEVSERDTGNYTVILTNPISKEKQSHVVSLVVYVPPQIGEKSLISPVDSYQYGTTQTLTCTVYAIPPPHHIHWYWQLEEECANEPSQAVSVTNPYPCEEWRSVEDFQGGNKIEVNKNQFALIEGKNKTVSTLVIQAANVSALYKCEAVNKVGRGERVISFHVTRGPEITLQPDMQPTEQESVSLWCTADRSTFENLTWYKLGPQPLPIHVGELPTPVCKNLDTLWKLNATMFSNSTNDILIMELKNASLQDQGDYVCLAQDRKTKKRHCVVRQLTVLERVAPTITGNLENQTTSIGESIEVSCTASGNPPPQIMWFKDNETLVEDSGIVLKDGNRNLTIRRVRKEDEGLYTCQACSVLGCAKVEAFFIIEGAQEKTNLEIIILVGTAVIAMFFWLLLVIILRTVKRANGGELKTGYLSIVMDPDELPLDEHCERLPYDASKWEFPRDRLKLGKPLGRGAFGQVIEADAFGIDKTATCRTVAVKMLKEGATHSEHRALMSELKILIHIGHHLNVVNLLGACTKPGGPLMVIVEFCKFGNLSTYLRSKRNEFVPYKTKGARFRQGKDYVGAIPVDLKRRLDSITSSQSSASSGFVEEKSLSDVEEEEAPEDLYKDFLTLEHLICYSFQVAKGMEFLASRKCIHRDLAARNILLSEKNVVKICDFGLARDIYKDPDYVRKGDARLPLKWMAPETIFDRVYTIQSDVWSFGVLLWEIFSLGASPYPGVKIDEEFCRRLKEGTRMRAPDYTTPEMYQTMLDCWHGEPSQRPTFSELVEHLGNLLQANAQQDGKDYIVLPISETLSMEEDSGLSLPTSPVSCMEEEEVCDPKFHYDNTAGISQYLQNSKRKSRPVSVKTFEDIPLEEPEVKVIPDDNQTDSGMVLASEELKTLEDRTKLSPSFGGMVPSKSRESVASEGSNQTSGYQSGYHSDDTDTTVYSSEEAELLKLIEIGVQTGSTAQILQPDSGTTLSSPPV

PKCθ(h) = biological target: T3, PKCθ(h) (Homo sapiens, UniProt Q04759); assay: Kinase panel; type: biochemical
T3 construct: purchased Millipore KinaseProfiler
T3 sequence (Q04759 whole entry): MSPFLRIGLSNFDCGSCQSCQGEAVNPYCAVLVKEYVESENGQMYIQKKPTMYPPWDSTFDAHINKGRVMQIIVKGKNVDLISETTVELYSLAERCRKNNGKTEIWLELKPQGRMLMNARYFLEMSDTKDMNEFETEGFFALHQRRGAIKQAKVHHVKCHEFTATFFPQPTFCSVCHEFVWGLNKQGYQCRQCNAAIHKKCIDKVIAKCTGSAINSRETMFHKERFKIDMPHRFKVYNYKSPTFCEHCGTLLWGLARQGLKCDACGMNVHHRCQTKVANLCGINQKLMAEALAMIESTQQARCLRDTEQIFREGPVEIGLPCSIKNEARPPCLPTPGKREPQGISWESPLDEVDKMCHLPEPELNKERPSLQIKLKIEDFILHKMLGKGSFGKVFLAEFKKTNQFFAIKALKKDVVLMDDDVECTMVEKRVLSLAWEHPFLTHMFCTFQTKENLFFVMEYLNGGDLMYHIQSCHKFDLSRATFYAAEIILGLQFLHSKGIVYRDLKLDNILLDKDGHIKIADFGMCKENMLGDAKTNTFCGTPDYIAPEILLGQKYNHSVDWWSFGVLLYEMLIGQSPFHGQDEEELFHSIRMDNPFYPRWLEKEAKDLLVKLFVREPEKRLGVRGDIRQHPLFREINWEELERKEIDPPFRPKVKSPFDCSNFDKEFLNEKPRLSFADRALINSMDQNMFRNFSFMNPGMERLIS

[1] = Plasma insulin after single oral dose; type: in vivo, mouse
Protocol: Blood glucose levels were determined from tail vein puncture in mice using a handheld glucometer. Plasma Insulin levels were using the Rat Ultrasensitive Insulin ELISA kit (Crystal Chem Inc).

EGFR(L858R)(h) = biological target: T4, EGFR(L858R)(h) (Homo sapiens, UniProt P00533, L858R); assay: Kinase panel; type: biochemical
T4 construct: purchased Millipore KinaseProfiler

JAK2(h) = biological target: T5, JAK2(h) (Homo sapiens, UniProt O60674); assay: Kinase panel; type: biochemical
T5 construct: purchased Millipore KinaseProfiler
T5 sequence (O60674 whole entry): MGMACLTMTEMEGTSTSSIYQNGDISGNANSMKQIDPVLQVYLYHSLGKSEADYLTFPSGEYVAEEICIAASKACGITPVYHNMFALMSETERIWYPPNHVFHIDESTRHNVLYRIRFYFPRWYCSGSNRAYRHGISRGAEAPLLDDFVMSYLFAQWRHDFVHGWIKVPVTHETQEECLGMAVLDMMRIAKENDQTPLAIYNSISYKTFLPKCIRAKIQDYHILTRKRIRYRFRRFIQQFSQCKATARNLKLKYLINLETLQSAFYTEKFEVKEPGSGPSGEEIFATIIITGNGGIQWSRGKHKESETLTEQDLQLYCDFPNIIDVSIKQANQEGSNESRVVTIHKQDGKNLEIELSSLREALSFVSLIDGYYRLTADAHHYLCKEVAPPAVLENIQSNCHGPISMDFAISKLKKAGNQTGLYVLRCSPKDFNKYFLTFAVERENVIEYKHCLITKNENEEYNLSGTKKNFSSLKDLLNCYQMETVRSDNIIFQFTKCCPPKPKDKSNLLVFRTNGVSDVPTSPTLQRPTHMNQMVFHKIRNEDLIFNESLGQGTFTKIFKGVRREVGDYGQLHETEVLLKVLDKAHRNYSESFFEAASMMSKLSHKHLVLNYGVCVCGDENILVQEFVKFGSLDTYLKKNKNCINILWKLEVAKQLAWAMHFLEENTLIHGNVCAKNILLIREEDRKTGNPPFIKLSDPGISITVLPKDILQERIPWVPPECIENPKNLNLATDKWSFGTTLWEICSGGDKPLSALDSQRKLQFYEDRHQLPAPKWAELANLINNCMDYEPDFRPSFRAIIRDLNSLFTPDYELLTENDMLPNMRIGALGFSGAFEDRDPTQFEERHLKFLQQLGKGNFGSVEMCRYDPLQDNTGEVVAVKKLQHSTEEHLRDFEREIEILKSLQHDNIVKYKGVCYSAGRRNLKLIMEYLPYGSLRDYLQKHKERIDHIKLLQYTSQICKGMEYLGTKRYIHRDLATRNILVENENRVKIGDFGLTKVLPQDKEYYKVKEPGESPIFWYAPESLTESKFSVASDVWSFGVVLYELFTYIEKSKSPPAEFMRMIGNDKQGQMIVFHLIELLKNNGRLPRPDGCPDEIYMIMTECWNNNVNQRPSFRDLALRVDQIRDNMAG

Rse(h) = biological target: T6, Rse(h) (Homo sapiens, UniProt Q06418); assay: Kinase panel; type: biochemical
T6 construct: purchased Millipore KinaseProfiler
T6 sequence (Q06418 41-890): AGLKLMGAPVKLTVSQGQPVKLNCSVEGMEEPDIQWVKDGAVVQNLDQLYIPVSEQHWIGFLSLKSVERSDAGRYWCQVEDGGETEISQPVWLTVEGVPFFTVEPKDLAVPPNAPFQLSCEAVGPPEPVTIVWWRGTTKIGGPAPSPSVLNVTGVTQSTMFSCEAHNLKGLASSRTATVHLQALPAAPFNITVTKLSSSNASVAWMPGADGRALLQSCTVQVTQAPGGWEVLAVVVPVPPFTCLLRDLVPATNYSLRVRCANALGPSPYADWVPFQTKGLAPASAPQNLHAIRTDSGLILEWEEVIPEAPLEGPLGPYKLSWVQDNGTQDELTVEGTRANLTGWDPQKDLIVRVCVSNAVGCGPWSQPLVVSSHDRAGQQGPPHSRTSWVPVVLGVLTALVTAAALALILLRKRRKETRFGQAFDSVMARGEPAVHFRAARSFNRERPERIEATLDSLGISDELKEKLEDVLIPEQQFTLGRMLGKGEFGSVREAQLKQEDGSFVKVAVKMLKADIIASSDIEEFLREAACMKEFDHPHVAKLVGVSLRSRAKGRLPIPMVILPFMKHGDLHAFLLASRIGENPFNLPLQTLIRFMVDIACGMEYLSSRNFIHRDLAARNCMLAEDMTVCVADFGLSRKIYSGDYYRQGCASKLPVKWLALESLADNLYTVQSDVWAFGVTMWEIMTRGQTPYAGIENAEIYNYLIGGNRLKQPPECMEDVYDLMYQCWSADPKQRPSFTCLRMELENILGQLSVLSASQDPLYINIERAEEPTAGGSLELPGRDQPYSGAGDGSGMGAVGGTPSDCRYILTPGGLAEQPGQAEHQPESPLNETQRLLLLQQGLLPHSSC

EGFR(L861Q)(h) = biological target: T7, EGFR(L861Q)(h) (Homo sapiens, UniProt P00533, L861Q); assay: Kinase panel; type: biochemical
T7 construct: purchased Millipore KinaseProfiler

ErbB4(h) = biological target: T8, ErbB4(h) (Homo sapiens, UniProt Q15303); assay: Kinase panel; type: biochemical
T8 construct: purchased Millipore KinaseProfiler
T8 sequence (Q15303 26-1308): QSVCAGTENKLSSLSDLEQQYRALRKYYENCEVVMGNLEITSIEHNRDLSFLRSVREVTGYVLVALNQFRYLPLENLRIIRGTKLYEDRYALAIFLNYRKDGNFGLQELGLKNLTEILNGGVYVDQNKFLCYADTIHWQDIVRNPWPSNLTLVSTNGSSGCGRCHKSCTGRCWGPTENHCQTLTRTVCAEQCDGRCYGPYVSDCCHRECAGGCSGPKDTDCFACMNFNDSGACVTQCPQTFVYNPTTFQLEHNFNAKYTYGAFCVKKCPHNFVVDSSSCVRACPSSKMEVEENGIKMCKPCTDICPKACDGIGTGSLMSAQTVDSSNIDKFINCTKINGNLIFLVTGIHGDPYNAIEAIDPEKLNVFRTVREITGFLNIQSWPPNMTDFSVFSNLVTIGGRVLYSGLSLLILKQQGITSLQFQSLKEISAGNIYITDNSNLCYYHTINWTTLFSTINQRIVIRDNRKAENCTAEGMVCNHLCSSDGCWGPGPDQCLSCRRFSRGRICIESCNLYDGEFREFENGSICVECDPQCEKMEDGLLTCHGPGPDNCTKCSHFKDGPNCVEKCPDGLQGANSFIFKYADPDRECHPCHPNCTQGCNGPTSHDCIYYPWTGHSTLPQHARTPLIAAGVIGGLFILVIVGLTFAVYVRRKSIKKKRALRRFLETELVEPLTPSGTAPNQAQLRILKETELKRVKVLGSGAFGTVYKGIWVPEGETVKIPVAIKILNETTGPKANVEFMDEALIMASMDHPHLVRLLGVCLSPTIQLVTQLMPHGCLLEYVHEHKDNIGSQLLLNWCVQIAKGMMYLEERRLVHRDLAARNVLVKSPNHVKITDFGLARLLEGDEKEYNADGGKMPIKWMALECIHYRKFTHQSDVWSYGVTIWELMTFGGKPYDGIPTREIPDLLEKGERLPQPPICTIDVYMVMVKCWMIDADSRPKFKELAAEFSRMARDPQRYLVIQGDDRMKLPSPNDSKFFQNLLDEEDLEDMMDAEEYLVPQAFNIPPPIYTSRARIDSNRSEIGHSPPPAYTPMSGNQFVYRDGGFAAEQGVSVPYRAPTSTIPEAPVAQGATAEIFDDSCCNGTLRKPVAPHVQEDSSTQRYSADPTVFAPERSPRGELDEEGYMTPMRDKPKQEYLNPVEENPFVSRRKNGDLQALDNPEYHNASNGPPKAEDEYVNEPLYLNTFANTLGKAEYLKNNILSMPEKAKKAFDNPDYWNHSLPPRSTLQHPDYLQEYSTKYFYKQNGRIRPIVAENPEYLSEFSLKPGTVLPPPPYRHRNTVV

PKA(h) = biological target: T9, PKA(h) (Homo sapiens, UniProt P17612); assay: Kinase panel; type: biochemical
T9 construct: purchased Millipore KinaseProfiler

MKK7β(h) = biological target: T10, MKK7β(h) (Homo sapiens, UniProt O14733); assay: Kinase panel; type: biochemical
T10 construct: purchased Millipore KinaseProfiler
T10 sequence (O14733 1-419): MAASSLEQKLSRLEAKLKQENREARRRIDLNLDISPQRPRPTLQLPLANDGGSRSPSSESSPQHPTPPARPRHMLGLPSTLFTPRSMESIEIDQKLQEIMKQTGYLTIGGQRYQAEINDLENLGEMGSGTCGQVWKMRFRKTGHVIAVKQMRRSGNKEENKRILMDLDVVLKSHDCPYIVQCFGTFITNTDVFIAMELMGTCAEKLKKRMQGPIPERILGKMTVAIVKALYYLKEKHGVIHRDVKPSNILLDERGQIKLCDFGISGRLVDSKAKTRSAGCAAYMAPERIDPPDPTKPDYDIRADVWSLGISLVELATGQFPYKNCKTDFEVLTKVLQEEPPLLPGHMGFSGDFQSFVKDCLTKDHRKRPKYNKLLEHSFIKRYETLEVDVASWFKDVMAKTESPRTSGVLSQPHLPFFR

ALK4(h) = biological target: T11, ALK4(h) (Homo sapiens, UniProt P36896); assay: Kinase panel; type: biochemical
T11 construct: purchased Millipore KinaseProfiler
T11 sequence (P36896 24-505): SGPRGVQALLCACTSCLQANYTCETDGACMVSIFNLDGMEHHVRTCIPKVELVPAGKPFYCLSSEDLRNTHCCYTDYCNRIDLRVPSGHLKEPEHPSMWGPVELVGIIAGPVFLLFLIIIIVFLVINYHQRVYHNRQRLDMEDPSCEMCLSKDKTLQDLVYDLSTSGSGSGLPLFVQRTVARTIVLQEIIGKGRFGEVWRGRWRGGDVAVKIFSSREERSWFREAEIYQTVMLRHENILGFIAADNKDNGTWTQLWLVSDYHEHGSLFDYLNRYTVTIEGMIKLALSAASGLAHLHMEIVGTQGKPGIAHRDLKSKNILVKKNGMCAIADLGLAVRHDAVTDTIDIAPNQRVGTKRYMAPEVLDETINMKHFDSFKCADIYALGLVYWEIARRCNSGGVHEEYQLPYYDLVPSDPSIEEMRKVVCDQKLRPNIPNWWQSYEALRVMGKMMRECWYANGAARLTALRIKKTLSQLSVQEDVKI

Pim-2(h) = biological target: T12, Pim-2(h) (Homo sapiens, UniProt Q9P1W9); assay: Kinase panel; type: biochemical
T12 construct: purchased Millipore KinaseProfiler
T12 sequence (Q9P1W9 whole entry): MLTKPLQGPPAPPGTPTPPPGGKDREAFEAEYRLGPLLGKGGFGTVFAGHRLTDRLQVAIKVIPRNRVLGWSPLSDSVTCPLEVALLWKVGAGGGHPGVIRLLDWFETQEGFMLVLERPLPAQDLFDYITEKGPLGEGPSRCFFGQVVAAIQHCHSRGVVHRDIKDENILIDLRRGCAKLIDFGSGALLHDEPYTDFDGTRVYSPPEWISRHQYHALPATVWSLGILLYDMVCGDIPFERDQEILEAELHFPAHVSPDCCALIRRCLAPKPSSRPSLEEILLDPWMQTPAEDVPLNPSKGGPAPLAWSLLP

Structure (SMILES): Cn1ncc(Cl)c1-c1cc(C(=O)N[C@H](CN)Cc2cccc(F)c2)sc1Cl [GSK2110183]
- inhibition at 0.5 µM (FAK(h)): 1%
- inhibition at 10 µM (FAK(h)): 39%
- inhibition at 0.5 µM (KDR(h)): 13%
- inhibition at 10 µM (KDR(h)): 7%
- inhibition at 0.5 µM (PKCθ(h)): 62%
- inhibition at 10 µM (PKCθ(h)): 94%
- time for insulin to return to baseline ([1]; 100 mg/kg single oral dose): ≤ 8 h
- insulin level ([1]; 100 mg/kg single oral dose, 4 h post dosing): 105.6 ng/mL
- inhibition at 0.5 µM (EGFR(L858R)(h)): 3%
- inhibition at 10 µM (EGFR(L858R)(h)): 15%
- inhibition at 0.5 µM (JAK2(h)): -31%
- inhibition at 10 µM (JAK2(h)): -55%
- inhibition at 0.5 µM (Rse(h)): 6%
- inhibition at 10 µM (Rse(h)): 51%
- inhibition at 0.5 µM (EGFR(L861Q)(h)): -4%
- inhibition at 10 µM (EGFR(L861Q)(h)): 21%
- inhibition at 0.5 µM (ErbB4(h)): -4%
- inhibition at 10 µM (ErbB4(h)): 4%
- inhibition at 0.5 µM (PKA(h)): 94%
- inhibition at 10 µM (PKA(h)): 96%
- inhibition at 0.5 µM (MKK7β(h)): 12%
- inhibition at 10 µM (MKK7β(h)): 28%
- inhibition at 0.5 µM (ALK4(h)): 3%
- inhibition at 10 µM (ALK4(h)): 0%
- inhibition at 0.5 µM (Pim-2(h)): 5%
- inhibition at 10 µM (Pim-2(h)): 35%

Structure (SMILES): Cn1ncc(Cl)c1-c1cc(C(=O)N[C@H](CN)Cc2ccc(F)c(F)c2)oc1Cl [GSK2141795]
- inhibition at 0.5 µM (FAK(h); 0.5 µM, read-out: % Inhibition): -3%
- inhibition at 10 µM (FAK(h); 10 µM, read-out: % Inhibition): 5%
- inhibition at 0.5 µM (KDR(h); 0.5 µM, read-out: % Inhibition): -6%
- inhibition at 10 µM (KDR(h); 10 µM, read-out: % Inhibition): -3%
- inhibition at 0.5 µM (PKCθ(h); 0.5 µM, read-out: % Inhibition): 82%
- inhibition at 10 µM (PKCθ(h); 10 µM, read-out: % Inhibition): 94%
- time for insulin to return to normal ([1]; single 30 mg/kg dose): ≤ 8 h
- plasma insulin ([1]; single 30 mg/kg dose, concomitant with glucose at 2 h): 188 ng/mL
- inhibition at 0.5 µM (EGFR(L858R)(h); 0.5 µM, read-out: % Inhibition): 3%
- inhibition at 10 µM (EGFR(L858R)(h); 10 µM, read-out: % Inhibition): 24%
- inhibition at 0.5 µM (JAK2(h); 0.5 µM, read-out: % Inhibition): -13%
- inhibition at 10 µM (JAK2(h); 10 µM, read-out: % Inhibition): -27%
- inhibition at 0.5 µM (Rse(h); 0.5 µM, read-out: % Inhibition): 2%
- inhibition at 10 µM (Rse(h); 10 µM, read-out: % Inhibition): 33%
- inhibition at 0.5 µM (EGFR(L861Q)(h); 0.5 µM, read-out: % Inhibition): -13%
- inhibition at 10 µM (EGFR(L861Q)(h); 10 µM, read-out: % Inhibition): 21%
- inhibition at 0.5 µM (ErbB4(h); 0.5 µM, read-out: % Inhibition): -11%
- inhibition at 10 µM (ErbB4(h); 10 µM, read-out: % Inhibition): -5%
- inhibition at 0.5 µM (PKA(h); 0.5 µM, read-out: % Inhibition): 99%
- inhibition at 10 µM (PKA(h); 10 µM, read-out: % Inhibition): 97%
- inhibition at 0.5 µM (MKK7β(h); 0.5 µM, read-out: % Inhibition): -13%
- inhibition at 10 µM (MKK7β(h); 10 µM, read-out: % Inhibition): -30%
- inhibition at 0.5 µM (ALK4(h); 0.5 µM, read-out: % Inhibition): -8%
- inhibition at 10 µM (ALK4(h); 10 µM, read-out: % Inhibition): -18%
- inhibition at 0.5 µM (Pim-2(h); 0.5 µM, read-out: % Inhibition): -7%
- inhibition at 10 µM (Pim-2(h); 10 µM, read-out: % Inhibition): 9%
